pIC50: −log10 of the molar value.
Columns and labels:
[1] = target: T1, Receptor-type tyrosine-protein kinase FLT3 (Homo sapiens, UniProt P36888); assay: Inhibition of recombinant FLT3 (unknown origin) by TR-FRET assay
T1 sequence (P36888 whole entry): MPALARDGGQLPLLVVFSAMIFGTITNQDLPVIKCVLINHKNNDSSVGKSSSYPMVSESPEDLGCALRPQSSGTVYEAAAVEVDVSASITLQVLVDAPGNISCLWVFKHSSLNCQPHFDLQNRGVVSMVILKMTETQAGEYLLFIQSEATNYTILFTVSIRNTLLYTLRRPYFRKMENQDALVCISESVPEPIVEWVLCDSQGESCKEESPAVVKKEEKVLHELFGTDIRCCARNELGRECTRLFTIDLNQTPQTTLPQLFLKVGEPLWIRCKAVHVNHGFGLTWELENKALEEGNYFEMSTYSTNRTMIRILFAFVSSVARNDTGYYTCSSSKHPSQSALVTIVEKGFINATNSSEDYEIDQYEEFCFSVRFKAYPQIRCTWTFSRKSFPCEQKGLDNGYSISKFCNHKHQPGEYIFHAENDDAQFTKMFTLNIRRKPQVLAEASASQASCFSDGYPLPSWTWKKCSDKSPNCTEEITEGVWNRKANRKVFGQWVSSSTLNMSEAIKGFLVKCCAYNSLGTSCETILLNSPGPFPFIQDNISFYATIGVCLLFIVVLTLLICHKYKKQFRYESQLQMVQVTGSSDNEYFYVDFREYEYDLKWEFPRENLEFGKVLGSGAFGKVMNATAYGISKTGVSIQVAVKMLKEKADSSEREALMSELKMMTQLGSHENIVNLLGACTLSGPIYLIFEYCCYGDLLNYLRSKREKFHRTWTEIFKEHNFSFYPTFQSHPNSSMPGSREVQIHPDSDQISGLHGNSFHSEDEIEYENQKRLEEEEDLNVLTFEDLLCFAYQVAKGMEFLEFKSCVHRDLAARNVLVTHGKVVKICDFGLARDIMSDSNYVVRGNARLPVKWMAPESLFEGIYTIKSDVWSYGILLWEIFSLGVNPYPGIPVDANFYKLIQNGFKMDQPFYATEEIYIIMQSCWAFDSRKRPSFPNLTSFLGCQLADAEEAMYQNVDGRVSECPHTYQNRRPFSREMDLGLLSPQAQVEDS

[2] = Cytotoxicity against human RS4:11 cells harboring wild type FLT3 after 72 hrs by tetrazolium based Ez CyTox cell viability assay; format: functional; conditions: RS4-11, 72 h
MV4-11 [3] = assay: Cytotoxicity against human MV4-11 cells harboring FLT3 mutation after 72 hrs by tetrazolium based Ez CyTox cell viability assay; format: functional; conditions: MV4-11, 72 h
MV4-11 [4] = assay: Cell cycle arrest in human MV4-11 cells harboring FLT3 mutation assessed as accumulation at G1 phase at 0.1 uM after 48 hrs using propidium iodide staining by flow cytometry (reference value: 69.69%); format: functional
MV4-11 [5] = assay: Cell cycle arrest in human MV4-11 cells harboring FLT3 mutation assessed as accumulation at S phase at 10 uM after 48 hrs using propidium iodide staining by flow cytometry (reference value: 15.48%); format: functional
MV4-11 [6] = assay: Cell cycle arrest in human MV4-11 cells harboring FLT3 mutation assessed as accumulation at sub-G1 phase at 0.1 uM after 48 hrs using propidium iodide staining by flow cytometry (reference value: 3.86%); format: functional
MV4-11 [7] = assay: Cell cycle arrest in human MV4-11 cells harboring FLT3 mutation assessed as accumulation at sub-G1 phase at 10 uM after 48 hrs using propidium iodide staining by flow cytometry (reference value: 3.86%); format: functional
MV4-11 [8] = assay: Cell cycle arrest in human MV4-11 cells harboring FLT3 mutation assessed as accumulation at G2/M phase at 1 uM after 48 hrs using propidium iodide staining by flow cytometry (reference value: 11.61%); format: functional
MV4-11 [9] = assay: Cell cycle arrest in human MV4-11 cells harboring FLT3 mutation assessed as accumulation at G2/M phase at 10 uM after 48 hrs using propidium iodide staining by flow cytometry (reference value: 11.61%); format: functional
MV4-11 [10] = assay: Cell cycle arrest in human MV4-11 cells harboring FLT3 mutation assessed as accumulation at S phase at 1 uM after 48 hrs using propidium iodide staining by flow cytometry (reference value: 15.48%); format: functional
MV4-11 [11] = assay: Cell cycle arrest in human MV4-11 cells harboring FLT3 mutation assessed as accumulation at G1 phase at 1 uM after 48 hrs using propidium iodide staining by flow cytometry (reference value: 69.69%); format: functional
MV4-11 [12] = assay: Cell cycle arrest in human MV4-11 cells harboring FLT3 mutation assessed as accumulation at sub-G1 phase at 1 uM after 48 hrs using propidium iodide staining by flow cytometry (reference value: 3.86%); format: functional
MV4-11 [13] = assay: Cell cycle arrest in human MV4-11 cells harboring FLT3 mutation assessed as accumulation at S phase at 0.1 uM after 48 hrs using propidium iodide staining by flow cytometry (reference value: 15.48%); format: functional
MV4-11 [14] = assay: Cell cycle arrest in human MV4-11 cells harboring FLT3 mutation assessed as accumulation at G2/M phase at 0.1 uM after 48 hrs using propidium iodide staining by flow cytometry (reference value: 11.61%); format: functional
MV4-11 [15] = assay: Cell cycle arrest in human MV4-11 cells harboring FLT3 mutation assessed as accumulation at G1 phase at 10 uM after 48 hrs using propidium iodide staining by flow cytometry (reference value: 69.69%); format: functional

Structure (SMILES)	pIC50 [1]	GI50 [2]	GI50 (MV4-11 [3])	other results
O=c1c(OC2O[C@H](CO)[C@H](O)[C@H](O)[C@H]2O)c(-c2ccc(O)c(O)c2)oc2cc(O)cc(O)c12 (stereo not given in full)	< 5.00			
O=c1c(OC2O[C@H](CO)[C@@H](O)[C@H](O)[C@@H]2O)c(-c2ccc(O)c(O)c2)oc2cc(O)cc(O)c12 (stereo not given in full)	< 5.00			
O=c1cc(-c2ccc(O)cc2)oc2cc(O)cc(O)c12 [APIGENIN]	5.84	27.9 µM	2.81 µM	
O=c1cc(-c2ccccc2)oc2cc(O)c(O)c(O)c12 [BAICALEIN]	< 5.00			
O=c1cc(-c2ccccc2)oc2cc(O)cc(O)c12 [CHRYSIN]	< 5.00			
O=C1c2c(O)cc(O)cc2O[C@H](c2ccc(O)cc2)[C@H]1O [DIHYDROKAEMPFEROL]	< 5.00			
O=C1C[C@@H](c2ccc(O)c(O)c2)Oc2cc(O)cc(O)c21 [ERIODICTYOL]	< 5.00			
O=c1c(O)c(-c2ccccc2)oc2cc(O)cc(O)c12 [GALANGIN]	< 5.00			
O=c1c(O[C@@H]2O[C@H](CO)[C@@H](O)[C@H](O)[C@H]2O)c(-c2ccc(O)c(O)c2)oc2cc(O)cc(O)c12 [ISOQUERCETIN]	< 5.00			
O=c1c(O)c(-c2ccc(O)cc2)oc2cc(O)cc(O)c12 [KAEMPFEROL]	5.63	> 50 µM	3.34 µM	
O=c1cc(-c2ccc(O)c(O)c2)oc2cc(O)cc(O)c12 [LUTEOLIN]	6.08	7.25 µM	1.76 µM	Activity (MV4-11 [4]): 71.25%; Activity (MV4-11 [5]): 2.09%; Activity (MV4-11 [6]): 13.71%; Activity (MV4-11 [7]): 30.76%; Activity (MV4-11 [8]): 4.2%; Activity (MV4-11 [9]): 0.51%; Activity (MV4-11 [10]): 12.8%; Activity (MV4-11 [11]): 67.08%; Activity (MV4-11 [12]): 16.42%; Activity (MV4-11 [13]): 10.5%; Activity (MV4-11 [14]): 4.9%; Activity (MV4-11 [15]): 66.68%
O=c1c(O)c(-c2cc(O)c(O)c(O)c2)oc2cc(O)cc(O)c12 [MYRICETIN]	5.77	> 50 µM	> 50 µM	
O=C1C[C@@H](c2ccc(O)cc2)Oc2cc(O)cc(O)c21 [NARINGENIN]	< 5.00			
COc1c(O)cc2oc(-c3ccccc3)cc(=O)c2c1O [OROXYLIN A]	5.83	40 µM	5.59 µM	
O=c1c(O)c(-c2ccc(O)c(O)c2)oc2cc(O)cc(O)c12 [QUERCETIN]	6.23	21.6 µM	13.1 µM	
O=c1cc(-c2ccc(O)cc2)oc2cc(O)c(O)c(O)c12 [SCUTELLAREIN]	< 5.00			
